{"source": "patent US7138361B2", "about": "“Herbicidal heterocycles” (E. I. du Pont de Nemours and Company, priority 2000, dated 2006)", "assay_type_in_all_cases": "in vivo", "key": {"[1]": {"tested_on": "blackgrass (Alopecurus myosuroides)", "experiment": "Test B postemergence", "conditions": "13 to 15 days", "how_it_was_run": "(§1)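 Seeds were planted and sprayed preemergence with test chemical in a non-phytotoxic solvent mixture containing surfactant; postemergence plants (2 to 18 cm, 1- to 4-leaf stage) received the same formulation. Greenhouse hold 13 to 15 days, then visual rating versus untreated controls on a 0–100 scale (0 no effect, 100 complete control).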"}, "[2]": {"tested_on": "morning glory (Ipomoea hederacea)", "experiment": "Test B postemergence", "conditions": "Rate 500 g/ha, scale 0 to 100, 0 is no effect, 100 is complete control, 13 to 15 days", "how_it_was_run": "as §1"}, "corn (Zea mays) [3]": {"tested_on": "corn (Zea mays)", "experiment": "Test B postemergence", "conditions": "13 to 15 days", "how_it_was_run": "as §1"}, "[4]": {"tested_on": "lambsquarters (Chenopodium album)", "experiment": "Test B postemergence", "conditions": "Rate 500 g/ha, scale 0 to 100, 0 is no effect, 100 is complete control, 13 to 15 days", "how_it_was_run": "as §1"}, "[5]": {"tested_on": "giant foxtail (Setaria faberii)", "experiment": "Test B postemergence", "conditions": "13 to 15 days", "how_it_was_run": "as §1"}, "[6]": {"tested_on": "pigweed (Amaranthus retroflexus)", "experiment": "Test B postemergence", "conditions": "Rate 500 g/ha, scale 0 to 100, 0 is no effect, 100 is complete control, 13 to 15 days", "how_it_was_run": "as §1"}, "[7]": {"tested_on": "velvetleaf (Abutilon theophrasti)", "experiment": "Test B postemergence", "conditions": "Rate 500 g/ha, scale 0 to 100, 0 is no effect, 100 is complete control, 13 to 15 days", "how_it_was_run": "as §1"}, "wild oat (Avena fatua)": {"tested_on": "wild oat (Avena fatua)", "experiment": "Test B postemergence", "conditions": "Rate 500 g/ha, scale 0 to 100, 0 is no effect, 100 is complete control, 13 to 15 days", "how_it_was_run": "as §1"}, "[8]": {"tested_on": "barnyardgrass (Echinochloa crus-galli)", "experiment": "Test B postemergence", "conditions": "13 to 15 days", "how_it_was_run": "as §1"}, "[9]": {"tested_on": "Surinam grass (Brachiaria decumbens)", "experiment": "Test B postemergence", "conditions": "13 to 15 days", "how_it_was_run": "as §1"}, "[10]": {"tested_on": "wheat (Triticum aestivum)", "experiment": "Test B postemergence", "conditions": "Rate 500 g/ha, scale 0 to 100, 0 is no effect, 100 is complete control, 13 to 15 days", "how_it_was_run": "as §1"}, "[11]": {"tested_on": "crabgrass (Digitaria sanguinalis)", "experiment": "Test B postemergence", "conditions": "13 to 15 days", "how_it_was_run": "as §1"}, "[12]": {"tested_on": "yellow nutsedge (Cyperus esculentus)", "experiment": "Test C preemergence", "text": "(§2) Seeds of plant species selected from bermudagrass (Cynodon dactylon), Surinam grass (Brachiaria decumbens), cocklebur (Xanthium strumarium), corn (Zea mays), crabgrass (Digitaria sanguinalis), woolly cupgrass (Eriochloa villosa), giant foxtail (Setaria faberii), goosegrass (Eleusine indica), johnsongrass (Sorghum halepense), kochia (Kochia scoparia), lambsquarters (Chenopodium album), morningglory (Ipomoea hederacea), yellow nutsedge (Cyperus esculentus), pigweed (Amaranthus retroflexus), common ragweed (Ambrosia elatior), soybean (Glycine max) and velvetleaf (Abutilon theophrasti) were planted and treated preemergence with test chemicals formulated in a non-phytotoxic solvent mixture which included a surfactant.\n(§3) At the same time, plants selected from these crop and weed species and also winter barley (Hordeum vulgare), blackgrass (Alopecurus myosuroides), canary grass (Phalaris minor), chickweed (Stellaria media), downy brome (Bromus tectorum), green foxtail (Setaria viridis), Italian ryegrass (Lolium multiflorum), wheat (Triticum aestivum), wild oat (Avena fatua) and windgrass (Apera spica-venti) were treated with postemergence applications of some of the test chemicals formulated in the same manner. Plants ranged in height from 2 to 18 cm (1- to 4-leaf stage) for postemergence treatments. Plant species in the flooded paddy test consisted of rice (Oryza saliva), smallflower flatsedge (Cyperus difformis), duck salad (Heteranthera limosa) and barnyardgrass (Echinochloa crus-galli) grown to the 2-leaf stage for testing. Treated plants and controls were maintained in a greenhouse for 12 to 14 days, after which time all species were compared to controls and visually evaluated. Plant response ratings, summarized in Table C, are based on a scale of 0 to 100 where 0 is no effect and 100 is complete control. A dash (-) response means no test result."}, "kochia (Kochia scoparia)": {"tested_on": "kochia (Kochia scoparia)", "experiment": "Test C preemergence", "text": "as §2, §3"}, "corn (Zea mays) [13]": {"tested_on": "corn (Zea mays)", "experiment": "Test C preemergence", "conditions": "preemergence", "text": "as §2, §3"}, "[14]": {"tested_on": "johnsongrass (Sorghum halepense)", "experiment": "Test C preemergence", "text": "as §2, §3"}, "Sunflower [15]": {"tested_on": "Sunflower", "experiment": "Test C preemergence", "conditions": "Rate 125 g/ha; scale 0 to 100, 0 no effect, 100 complete control", "text": "as §2, §3"}, "[16]": {"tested_on": "giant foxtail (Setaria faberii)", "experiment": "Test C preemergence", "text": "as §2, §3"}, "[17]": {"tested_on": "bermudagrass (Cynodon dactylon)", "experiment": "Test C preemergence", "text": "as §2, §3"}, "[18]": {"tested_on": "morningglory (Ipomoea hederacea)", "experiment": "Test C preemergence", "text": "as §2, §3"}, "[19]": {"tested_on": "velvetleaf (Abutilon theophrasti)", "experiment": "Test C preemergence", "text": "as §2, §3"}, "Sunflower [20]": {"tested_on": "Sunflower", "experiment": "Test C preemergence", "conditions": "Rate 500 g/ha, visual evaluation after 12 to 14 days"}, "[21]": {"conditions": "Rate 125 g/ha, scale 0 (no effect) to 100 (complete control)"}, "[22]": {"conditions": "Rate 500 g/ha, scale 0 to 100, 0 is no effect, 100 is complete control"}, "[23]": {"conditions": "Rate 125 g/ha, scale 0 to 100, 0 no effect, 100 complete control"}, "[24]": {"conditions": "preemergence, Rate 62 g/ha, scale 0 to 100"}, "[25]": {"conditions": "preemergence, Rate 500 g/ha, visual evaluation after 12 to 14 days"}, "[26]": {"conditions": "preemergence, Rate 250 g/ha, scale 0 to 100, 0 no effect, 100 complete control"}}}
{"smiles": "CCCC(C)c1ccn(C2CCN(c3cccc(C(F)(F)F)c3)C2=O)n1", "note": "(stereo not drawn) [Compound 100]", "values": [{"measurement": "Plant response rating, Blackgrass", "setting": "[1]; [21]", "result": 0}, {"measurement": "Plant response rating, Blackgrass", "setting": "[1]; [22]", "result": 0}, {"measurement": "Plant response rating, Morningglory", "setting": "[2]", "result": 0}, {"measurement": "Plant response rating, Corn", "setting": "corn (Zea mays) [3]; [21]", "result": 0}, {"measurement": "Plant response rating, Corn", "setting": "corn (Zea mays) [3]; [22]", "result": 0}, {"measurement": "Plant response rating, Lambsquarters", "setting": "[4]", "result": 80}, {"measurement": "Plant response rating, Foxtail, Giant", "setting": "[5]; [21]", "result": 0}, {"measurement": "Plant response rating, Foxtail, Giant", "setting": "[5]; [22]", "result": 0}, {"measurement": "Plant response rating, Pigweed", "setting": "[6]", "result": 0}, {"measurement": "Plant response rating, Velvetleaf", "setting": "[7]", "result": 0}, {"measurement": "Plant response rating, Wild Oat", "setting": "wild oat (Avena fatua)", "result": 0}, {"measurement": "Plant response rating, Barnyardgrass", "setting": "[8]; [21]", "result": 0}, {"measurement": "Plant response rating, Barnyardgrass", "setting": "[8]; [22]", "result": 0}, {"measurement": "Plant response rating, Surinam grass", "setting": "[9]; [21]", "result": 0}, {"measurement": "Plant response rating, Surinam grass", "setting": "[9]; [22]", "result": 0}, {"measurement": "Plant response rating, Wheat", "setting": "[10]", "result": 0}, {"measurement": "Plant response rating, Crabgrass", "setting": "[11]; [21]", "result": 0}, {"measurement": "Plant response rating, Crabgrass", "setting": "[11]; [22]", "result": 0}, {"measurement": "Plant response rating, Nutsedge", "setting": "[12]; [23]", "result": 0}, {"measurement": "Plant response rating, Nutsedge", "setting": "[12]; [24]", "result": 0}, {"measurement": "Plant response rating (0 to 100), Nutsedge", "setting": "[12]; [25]", "result": 0}, {"measurement": "Plant response rating, Nutsedge", "setting": "[12]; [26]", "result": 0}, {"measurement": "Plant response rating, Kochia", "setting": "kochia (Kochia scoparia); [23]", "result": 0}, {"measurement": "Plant response rating, Kochia", "setting": "kochia (Kochia scoparia); [24]", "result": 0}, {"measurement": "Plant response rating (0 to 100), Kochia", "setting": "kochia (Kochia scoparia); [25]", "result": 100}, {"measurement": "Plant response rating, Kochia", "setting": "kochia (Kochia scoparia); [26]", "result": 90}, {"measurement": "Plant response rating, Corn", "setting": "corn (Zea mays) [13]; Rate 62 g/ha, scale 0 to 100", "result": 20}, {"measurement": "Plant response rating (0 to 100), Corn", "setting": "corn (Zea mays) [13]; Rate 500 g/ha, visual evaluation after 12 to 14 days", "result": 20}, {"measurement": "Plant response rating, Corn", "setting": "corn (Zea mays) [13]; Rate 250 g/ha, scale 0 to 100, 0 no effect, 100 complete control", "result": 20}, {"measurement": "Plant response rating, Johnsongrass", "setting": "[14]; [23]", "result": 90}, {"measurement": "Plant response rating, Johnsongrass", "setting": "[14]; [24]", "result": 0}, {"measurement": "Plant response rating (0 to 100), Johnsongrass", "setting": "[14]; [25]", "result": 100}, {"measurement": "Plant response rating, Johnsongrass", "setting": "[14]; [26]", "result": 90}, {"measurement": "Plant response rating, Sunflower", "setting": "Sunflower [15]", "result": 0}, {"measurement": "Plant response rating, Foxtail, Giant", "setting": "[16]; [23]", "result": 10}, {"measurement": "Plant response rating, Foxtail, Giant", "setting": "[16]; [24]", "result": 90}, {"measurement": "Plant response rating (0 to 100), Foxtail, Giant", "setting": "[16]; [25]", "result": 100}, {"measurement": "Plant response rating, Foxtail, Giant", "setting": "[16]; [26]", "result": 40}, {"measurement": "Plant response rating, Bermudagrass", "setting": "[17]; [23]", "result": 90}, {"measurement": "Plant response rating, Bermudagrass", "setting": "[17]; [24]", "result": 90}, {"measurement": "Plant response rating (0 to 100 where 0 is no effect and 100 is complete control), Bermudagrass", "setting": "[17]; [25]", "result": 100}, {"measurement": "Plant response rating, Bermudagrass", "setting": "[17]; [26]", "result": 100}, {"measurement": "Plant response rating, Morningglory", "setting": "[18]; [23]", "result": 0}, {"measurement": "Plant response rating, Morningglory", "setting": "[18]; [24]", "result": 0}, {"measurement": "Plant response rating (0 to 100), Morningglory", "setting": "[18]; [25]", "result": 0}, {"measurement": "Plant response rating, Morningglory", "setting": "[18]; [26]", "result": 0}, {"measurement": "Plant response rating, Velvetleaf", "setting": "[19]; [23]", "result": 0}, {"measurement": "Plant response rating, Velvetleaf", "setting": "[19]; [24]", "result": 0}, {"measurement": "Plant response rating (0 to 100), Velvetleaf", "setting": "[19]; [25]", "result": 0}, {"measurement": "Plant response rating, Velvetleaf", "setting": "[19]; [26]", "result": 0}, {"measurement": "Plant response rating (0 to 100), Sunflower", "setting": "Sunflower [20]", "result": 0}]}
